Target: D2 receptor (Homo sapiens, UniProt P14416)
Experiment: [3H]Thymidine uptake assay for D2 intrinsic activity
Format: cell-based
Settings: Table 1; test compound 1 μM; 1 μM Quinpirole = 100% intrinsic activity
Method: D2 intrinsic activity of title compounds of the Examples, below, was determined using the [^3H]thymidine uptake assay described below.
[^3H]Thymidine Uptake Assay for D2 Intrinsic Activity
Cells are serum deprived by washing twice with 200 μl of serum-free media. 90 μl serum-free media was added to each well. The plates ware incubated for two to three hours. 10 μl of serum-containing media, as a positive control, vehicle (serum-free media), negative control (an antagonist) or test compounds and standards (10 μl of a 10 μM solution for a final concentration of 1 μM) in serum-free media were added to wells. The plates are returned to the incubator. Eighteen hours later [^3H]thymidine is added (0.5 μCi/well in 10 μl of serum-free media) and the plates are returned to the incubator. […] The plates are returned to the incubator, once again. One hour later the assay is terminated by rapid filtration through Whatman GF/C glass fiber filters. Filters are washed four times with 500 ml of 50 mM Tris-HCl pH 7.0 buffer, for example, using a Brandel MLR-96T cell harvester. […] Intrinsic activity is defined as total uptake (1 μM Quinpirole) minus serum-free media (no uptake). Test compounds are compared to 1 μM Quinpirole (full DA agonist), which was classified as 100% intrinsic activity.

Chain of D2 receptor (P14416 whole entry): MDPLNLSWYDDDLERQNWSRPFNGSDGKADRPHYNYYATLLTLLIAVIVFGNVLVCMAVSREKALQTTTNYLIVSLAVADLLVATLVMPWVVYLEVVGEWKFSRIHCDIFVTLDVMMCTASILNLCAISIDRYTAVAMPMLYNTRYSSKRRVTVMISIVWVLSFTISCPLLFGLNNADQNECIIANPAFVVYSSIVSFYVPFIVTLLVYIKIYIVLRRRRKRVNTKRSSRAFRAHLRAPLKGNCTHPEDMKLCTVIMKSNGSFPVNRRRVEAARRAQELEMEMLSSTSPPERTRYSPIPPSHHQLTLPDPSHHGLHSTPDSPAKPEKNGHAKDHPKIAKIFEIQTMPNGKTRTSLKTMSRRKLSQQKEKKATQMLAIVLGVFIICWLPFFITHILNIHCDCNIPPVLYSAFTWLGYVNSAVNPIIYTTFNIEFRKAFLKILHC

Compound | Emax at 1 µM [%]
O=C1CCc2ccc(OCCCN3CCN(c4cccc5ccccc45)CC3)nc2N1 [Example C3, 7-[3-(4-Naphthalen-1-yl-piperazin-1-yl)-propoxy]-3,4-dihydro-1H-[1,8]naphthyridin-2-one] | 22
CC(=O)c1ccc2c(N3CCN(CCCCOc4ccc5c(n4)NC(=O)CC5)CC3)cccc2c1 [Example A79, 7-{4-[4-(6-Acetyl-napthalen-1-yl)-piperazin-1-yl]-butoxy}-3,4-dihydro-1H-[1,8]naphthyridin-2-one] | 24
O=C1CCc2cc(Br)c(OCCCCN3CCN(c4cccc5ccccc45)CC3)nc2N1 [Example E8, 6-Bromo-7-[4-(4-naphthalen-1-yl-piperazin-1-yl)-butoxy]-3,4-dihydro-1H-[1,8]naphthyridin-2-one] | 26
O=C1CCc2ccc(OCCCCN3CCN(c4ccc(F)cc4F)CC3)nc2N1 [Example A41, 7-{4-[4-(2,4-Difluoro-phenyl)-piperazin-1-yl]-butoxy}-3,4-dihydro-1H-[1,8]naphthyridin-2-one] | 28
O=C1CCc2cnc(OCCCCN3CCN(c4cccc(Cl)c4Cl)CC3)c(Cl)c2N1 [Example I9, 8-Chloro-7-{4-[4-(2,3-dichloro-phenyl)-piperazin-1-yl]-butoxy}-3,4-dihydro-1H-[1,6]naphthyridin-2-one] | 19
CC(=O)c1ccc(N2CCN(CCCCOc3ccc4ccc(=O)[nH]c4n3)CC2)c2ccccc12 [Example B65, 7-{4-[4-(4-Acetyl-naphthalen-1-yl)-piperazin-1-yl]-butoxy}-1H-[1,8]naphthyridin-2-one] | 10
O=C1CCc2ccc(OCCCCN3CCN(c4cccc5c4CCCC5(F)F)CC3)nc2N1 [Example A59, 7-{4-[4-(5,5-Difluoro-5,6,7,8-tetrahydro-naphthalen-1-yl)-piperazin-1-yl]-butoxy}-3,4-dihydro-1H-[1,8]naphthyridin-2-one] | 30
O=c1ccc2ccc(OCCCCN3CCN(c4cccc(C(F)(F)F)c4)CC3)nc2[nH]1 [Example B15, 7-{4-[4-(3-Trifluoromethyl-phenyl)-piperazin-1-yl]-butoxy}-1H-[1,8]naphthyridin-2-one] | 17
CCOc1ccccc1N1CCN(CCCCOc2ccc3c(n2)NC(=O)CC3)CC1 [Example A20, 7-{4-[4-(2-Ethoxy-phenyl)-piperazin-1-yl]-butoxy}-3,4-dihydro-1H-[1,8]naphthyridin-2-one] | 19
CC(C)COc1ccccc1N1CCN(CCCCOc2ccc3ccc(=O)[nH]c3n2)CC1 [Example B11, 7-{4-[4-(2-Isobutoxy-phenyl)-piperazin-1-yl]-butoxy}-1H-[1,8]naphthyridin-2-one] | 31
O=c1ccc2ccc(OCCCCN3CCN(c4cccc5ccc(Cl)cc45)CC3)nc2[nH]1 [Example B56, 7-{4-[4-(7-Chloro-naphthalen-1-yl)-piperazin-1-yl]-butoxy}-1H-[1,8]naphthyridin-2-one] | 28
CC(C)Oc1ccccc1N1CCN(CCCCOc2ccc3c(n2)NC(=O)CC3)CC1 [Example A26, 7-{4-[4-(2-Isopropoxy-phenyl)-piperazin-1-yl]-butoxy}-3,4-dihydro-1H-[1,8]naphthyridin-2-one] | 33
O=C1CCc2cnc(OCCCCN3CCN(c4cccc5ccccc45)CC3)cc2N1 [Example I3, 7-[4-(4-Naphthalen-1-yl-piperazin-1-yl)-butoxy]-3,4-dihydro-1H-[1,6]naphthyridin-2-one] | 33
CC(C)(CCCN1CCN(c2cccc(Cl)c2Cl)CC1)Oc1ccc2c(n1)NC(=O)CC2 [Example C7, 7-{4-[4-(2,3-Dichloro-phenyl)-piperazin-1-yl]-1,1-dimethyl-butoxy}-3,4-dihydro-1H-[1,8]naphthyridin-2-one] | 46
Cc1nc(OCCCCN2CCN(c3cccc4ccc(F)cc34)CC2)nc2[nH]c(=O)ccc12 [Example H10, 2-{4-[4-(7-Fluoro-naphthalen-1-yl)-piperazin-1-yl]-butoxy}-4-methyl-8H-pyrido[2,3-d]pyrimidin-7-one] | 44
Cc1cc(OCCCCN2CCN(c3cccc4c3CCCC4)CC2)nc2c1CCC(=O)N2 [Example E11, 5-Methyl-7-{4-[4-(5,6,7,8-tetrahydro-naphthalen-1-yl)-piperazin-1-yl]-butoxy}-3,4-dihydro-1H-[1,8]naphthyridin-2-one] | 19
Cc1cc(N2CCN(CCCCOc3ccc4c(n3)NC(=O)CC4)CC2)c(Cl)cc1F [Example A13, 7-{4-[4-(2-Chloro-4-fluoro-5-methyl-phenyl)-piperazin-1-yl]-butoxy}-3,4-dihydro-1H-[1,8]naphthyridin-2-one] | 21
O=c1ccc2ccc(OCCCN3CCN(c4cccc5ccccc45)CC3)nc2[nH]1 [Example C2, 7-[3-(4-Naphthalen-1-yl-piperazin-1-yl)-propoxy]-1H-[1,8]naphthyridin-2-one] | 24
CCc1c(Cl)cccc1N1CCN(CCCCOc2ccc3ccc(=O)[nH]c3n2)CC1 [Example B4, 7-{4-[4-(3-Chloro-2-ethyl-phenyl)-piperazin-1-yl]-butoxy}-1H-[1,8]naphthyridin-2-one] | 22
O=C1CCc2cnc(OCCCCN3CCN(c4cccc5c4CCCC5)CC3)cc2N1 [Example I2, 7-{4-[4-(5,6,7,8-Tetrahydro-naphthalen-1-yl)-piperazin-1-yl]-butoxy}-3,4-dihydro-1H-[1,6]naphthyridin-2-one] | 37
CC1Cc2ccc(OCCCCN3CCN(c4cccc(Cl)c4Cl)CC3)nc2NC1=O (single isomer, unassigned) [Example D6a, 7-{4-[4-(2,3-Dichloro-phenyl)-piperazin-1-yl]-butoxy}-3-methyl-3,4-dihydro-1H-[1,8]naphthyridin-2-one] | 17
COC(=O)c1c(OCCCCN2CCN(c3cccc4ccccc34)CC2)ncc2c1NC(=O)CC2 [Example I11, 7-[4-(4-Naphthalen-1-yl-piperazin-1-yl)-butoxy]-2-oxo-1,2,3,4-tetrahydro-[1,6]naphthyridine-8-carboxylic acid methyl ester] | 19

Same assay, conditions: Table 2; test compound 1 μM; 1 μM Quinpirole = 100% intrinsic activity

Compound | Emax at 1 µM [%]
O=C1CCc2ccc(OCCCCN3CCN(c4cccc5ncc(F)cc45)CC3)nc2N1 [Example A38′, 7-{4-[4-(3-Fluoro-quinolin-5-yl)-piperazin-1-yl]-butoxy}-3,4-dihydro-1H-[1,8]naphthyridin-2-one] | 20
Cc1nc(OCCCCN2CCN(c3cccc4ccoc34)CC2)nc2[nH]c(=O)ccc12 [Example G12′, 2-[4-(4-Benzofuran-7-yl-piperazin-1-yl)-butoxy]-4-methyl-8H-pyrido[2,3-d]pyrimidin-7-one] | 36
O=C1CCc2ccc(OCCCCN3CCN(c4cccc5sccc45)CC3)nc2N1 [Example A28′, 7-[4-(4-Benzo[b]thiophen-4-yl-piperazin-1-yl)-butoxy]-3,4-dihydro-1H-[1,8]naphthyridin-2-one] | 21
O=C1CCc2cccc(N3CCN(CCCCOc4ccc5ccc(=O)[nH]c5n4)CC3)c2N1 [Example B37′, 7-{4-[4-(2-Oxo-1,2,3,4-tetrahydro-quinolin-8-yl)-piperazin-1-yl]-butoxy}-1H-[1,8]naphthyridin-2-one] | 39
O=c1ccc2ccc(OCCCCN3CCN(c4cccc5ncccc45)CC3)nc2[nH]1 [Example B22′, 7-[4-(4-Quinolin-5-yl-piperazin-1-yl)-butoxy]-1H-[1,8]naphthyridin-2-one] | 12
O=c1ccc2ccc(OCCCCN3CCN(c4cccc5c4OCCC5)CC3)nc2[nH]1 [Example B1′, 7-[4-(4-Chroman-8-yl-piperazin-1-yl)-butoxy]-1H-[1,8]naphthyridin-2-one] | 22
CN1C(=O)CCc2cccc(N3CCN(CCCCOc4ccc5c(n4)NC(=O)CC5)CC3)c21 [Example A49′, 7-{4-[4-(1-Methyl-2-oxo-1,2,3,4-tetrahydro-quinolin-8-yl)-piperazin-1-yl]-butoxy}-3,4-dihydro-1H-[1,8]naphthyridin-2-one] | 38
O=c1ccc2cnc(OCCCCN3CCN(c4cccc5c4OCCO5)CC3)nc2[nH]1 [Example G1′, 2-{4-[4-(2,3-Dihydro-benzo[1,4]dioxin-5-yl)-piperazin-1-yl]-butoxy}-8H-pyrido[2,3-d]pyrimidin-7-one] | 20
COc1ccc2c(N3CCN(CCCCOc4ccc5c(n4)NC(=O)CC5)CC3)cccc2n1 [Example A43′, 7-{4-[4-(2-Methoxy-quinolin-5-yl)-piperazin-1-yl]-butoxy}-3,4-dihydro-1H-[1,8]naphthyridin-2-one] | 32
Cn1ccc2c(N3CCN(CCCCOc4ccc5c(n4)NC(=O)CC5)CC3)cccc21 [Example A26′, 7-{4-[4-(1-Methyl-1H-indol-4-yl)-piperazin-1-yl]-butoxy}-3,4-dihydro-1H-[1,8]naphthyridin-2-one] | 12
O=C1CCc2cnc(OCCCCN3CCN(c4cccc5c4OCC5)CC3)cc2N1 [Example H2′, 7-{4-[4-(2,3-Dihydro-benzofuran-7-yl)-piperazin-1-yl]-butoxy}-3,4-dihydro-1H-[1,6]naphthyridin-2-one] | 15
CC1(C)CCc2cccc(N3CCN(CCCCOc4ccc5c(n4)NC(=O)CC5)CC3)c2O1 [Example A6′, 7-{4-[4-(2,2-Dimethyl-chroman-8-yl)-piperazin-1-yl]-butoxy}-3,4-dihydro-1H-[1,8]naphthyridin-2-one] | 42
CC1(C)CC(=O)Nc2nc(OCCCCN3CCN(c4cccc5c4OCCC5)CC3)ccc21 [Example C6′, 7-[4-(4-Chroman-8-yl-piperazin-1-yl)-butoxy]-4,4-dimethyl-3,4-dihydro-1H-[1,8]naphthyridin-2-one] | 24
O=C1CCc2ccc(OCCCCN3CCN(c4cccc5ccc(=O)[nH]c45)CC3)nc2N1 [Example A47′, 7-{4-[4-(2-Oxo-1,2-dihydro-quinolin-8-yl)-piperazin-1-yl]-butoxy}-3,4-dihydro-1H-[1,8]naphthyridin-2-one] | 32
O=C1CCc2ccc(OCCCCN3CCN(c4cccc5[nH]c(=O)oc45)CC3)nc2N1 [Example A1′, 7-{4-[4-(2-Oxo-2,3-dihydro-benzooxazol-7-yl)-piperazin-1-yl]-butoxy}-3,4-dihydro-1H-[1,8]naphthyridin-2-one] | 73

Source: patent US7160888B2, “[1,8]naphthyridin-2-ones and related compounds for the treatment of schizophrenia” (Warner Lambert Company LLC, priority 2003, dated 2007)
